According to patent publication US20220370461A1, “USE OF IMIDAZOPYRIMIDINE OR IMIDAZOTRIAZINE COMPOUNDS FOR PREVENTION, ALLEVIATION, OR TREATMENT OF COGNITIVE DISORDERS, OR FOR IMPROVING COGNITIVE FUNCTION” (SK BIOPHARMACEUTICALS CO., LTD., priority 2019, published 2022):

Assays:
Assay type in all cases: in vivo
[1] = system: rat model exhibiting cognitive ability decreased by treatment with dizocilpine; assay: Object recognition test in rat model with cognitive ability decreased by dizocilpine; settings: for recognition index: P<0.01 vs negative control
Procedure: As an animal model of cognitive disorder, an animal model of which the cognitive ability was decreased by administering dizocilpine, a cognitive inhibitor, was used.
(§1) Male rats (Wistar, 4 weeks old, Orient Bio Co., Ltd.) were purchased and acclimatized for one week or more in an animal cage. The experimental animals were raised in a light-controlled environment (illuminated for 12 hours/nonilluminated for 12 hours) and stored and managed according to the laboratory animal care standards of the Institutional Animal Care and Use Committee (IACUC) in an environment where a temperature of 19° C. to 25° C. and a relative humidity of 30% to 70% were maintained and water and food could be freely available. The rats were stabilized for one week or more, and then used for an object recognition test. The rats were randomly divided into groups and the test was performed under illumination.
To create an animal model inducing symptoms of decreased cognitive ability, the experimental animals were treated with dizocilpine, an N-methyl-D-aspartate (NMDA) receptor inhibitor.
(§2) Dizocilpine (purchased from Sigma) was dissolved in physiological saline used as a vehicle to be freshly prepared, and subcutaneously administered at a dose of 0.1 mg/kg in a volume of 1 ml per 1 kg of rat body weight 30 minutes before training. To a control group, only physiological saline was administered.
The test compound was dissolved in 5% DMSO (dimethyl sulfoxide) in 10% Cremophor, and orally administered at doses of 0.03, 0.1, and 0.3 mg/kg in a volume of 1 ml per 1 kg of rat body weight one hour before training. To a control group, only vehicle (5% DMSO in 10% Cremophor) was administered.
Each rat was handled by the experimenter for 3 minutes or more, and box acclimation for 3 minutes was performed two times in an empty box before the experiment. After administration of vehicle or test compound intraperitoneally at a dose of 1 mg/kg one hour before training and of vehicle or dizocilpine subcutaneously 30 minutes before training, the rats were boxed for training. Training was conducted by exposing the rats in a box in which two identical plastic cylinders or stainless square pyramids were placed. One hour after training, the test was performed in a box in which one plastic cylinder and one stainless square pyramid was placed. During the test, the time during which the rat explored each object was measured. The test results were analyzed using a stainless square pyramid as a novel object in the case of rats trained in a box in which two plastic cylinders were placed and a plastic cylinder as a novel object in the case of rats trained in a box in which two stainless steel pyramids were placed.
The recognition index was calculated based on the time during which the object was explored, the data on the recognition index between groups was analyzed by one-way analysis of variance (ANOVA) and Dunnett's multiple comparison test, and then the effect was defined as significant when p<0.05. All results were expressed as mean±SEM.

[2] = system: rat model exhibiting cognitive ability decreased by treatment with dizocilpine; assay: Y-maze test in rat model with cognitive ability decreased by dizocilpine
Procedure: as §1, with “Committee” for “Committee (IACUC)”, “a Y-maze” for “an object recognition”
To create an animal model inducing symptoms of decreased cognitive ability, experimental animals were treated with dizocilpine, an NMDA receptor inhibitor.
as §2
The test compound was dissolved in 5% DMSO in 9.5% Cremophor, and orally administered at doses of 0.1, 0.3, and 1 mg/kg in a volume of 5 ml per 1 kg of rat body weight one hour before training. To a control group, only vehicle (5% DMSO in 9.5% Cremophor) was administered.
The rats were handled by the experimenter for 3 minutes for two days, and a Y-maze test was performed the next day. After administration of vehicle or test compound intraperitoneally one hour before test and of vehicle or dizocilpine subcutaneously 30 minutes before test, the Y-maze test was performed for 5 minutes by placing the rat at the end of one arm in the Y-maze and allowing the rat to move freely. The three arms positioned at the same angle in the Y-maze had the same length of 45 cm, the same width of 10 cm, and the same height of 20 cm. A case where a rat visited three different arms in succession was defined as an alternation behavior.
The alternation rate was determined by identifying the alternation behavior of the rat based on the visit record to each arm in the Y-maze test, the data on the alternation rate between groups was analyzed by one-way ANOVA and Dunnett's multiple comparison test, and then the effect was defined as significant when p<0.05. All results were expressed as mean±SEM.

[3] = system: rat model undergone natural forgetting; assay: Object recognition test in natural forgetting rat model; settings: for Recognition index (mean ± SEM): test 24 h after training

For `C[C@]12N[C@H](Cc3ccccc31)c1ccccc12` [Dizocilpine, dizocilpine, reference compound], the “Recognition index (mean ± SEM)” value ([1]; dizocilpine 0.1 mg/kg sc only (negative control), vehicle group 63.29 ± 1.56) was 49.77 ± 1.03, the “Alternation rate (mean ± SEM)” value ([2]; dizocilpine 0.1 mg/kg sc only (negative control), vehicle group 70.1 ± 2.8) was 49.2 ± 5.3 and the alternation rate ([2]; dizocilpine only (negative control), P<0.001 vs vehicle group) was 49.2 ± 5.3%.
With `Fc1ccc(-c2cnc3nc(COc4ccccn4)cn3c2)c(C(F)(F)F)c1` [test compound, 6-[4-fluoro-2-(trifluoromethyl)phenyl]-2-(2-pyridyloxymethyl)imidazo[1,2-a]pyrimidine] the “Recognition index (mean ± SEM)” value ([1]; dizocilpine 0.1 mg/kg sc + test compound 0.03 mg/kg po, test 1 h after training, index = novel/total exploring time × 100) was 51.95 ± 1.79, the “Recognition index (mean ± SEM)” value ([1]; dizocilpine 0.1 mg/kg sc + test compound 0.1 mg/kg po, test 1 h after training) was 57.95 ± 1.8 and the “Recognition index (mean ± SEM)” value ([1]; dizocilpine 0.1 mg/kg sc + test compound 0.3 mg/kg po, test 1 h after training) was 57.62 ± 1.89. The recognition index ([1]; dizocilpine + test compound 0.1 mg/kg) was 57.95±1.8%, the recognition index ([1]; dizocilpine + test compound 0.3 mg/kg) was 57.62±1.89% and the “Recognition index (mean ± SEM)” value ([3]; test compound 0.1 mg/kg po, first experiment, vehicle 48.61 ± 1.87) was 56.57 ± 2.37. For the same molecule, the recognition index ([3]; test compound 0.1 mg/kg, first experiment, P<0.05 vs control) was 56.57±2.37, the “Recognition index (mean ± SEM)” value ([3]; test compound 0.3 mg/kg po, first experiment) was 59.77 ± 2.64 and the recognition index ([3]; test compound 0.3 mg/kg, first experiment, P<0.01 vs control) was 59.77±2.64. For the same molecule, the “Recognition index (mean ± SEM)” value ([3]; test compound 1 mg/kg po, second experiment, vehicle 51.20 ± 2.61) was 60.91 ± 2.72, the recognition index ([3]; test compound 1 mg/kg, second experiment, P<0.01 vs control) was 60.91±2.72 and the “Recognition index (mean ± SEM)” value ([3]; test compound 3 mg/kg po, second experiment) was 56.20 ± 2.27. The recognition index ([3]; test compound 3 mg/kg, second experiment) was 56.20±2.27, the “Alternation rate (mean ± SEM)” value ([2]; dizocilpine 0.1 mg/kg sc + test compound 0.1 mg/kg po, 5 min Y-maze, actual/maximum possible alternations × 100) was 67.3 ± 3.5 and the “Alternation rate (mean ± SEM)” value ([2]; dizocilpine 0.1 mg/kg sc + test compound 0.3 mg/kg po) was 57.3 ± 5.7. The “Alternation rate (mean ± SEM)” value ([2]; dizocilpine 0.1 mg/kg sc + test compound 1 mg/kg po) was 49.9 ± 7.2, the alternation rate ([2]; dizocilpine + test compound 0.1 mg/kg, P<0.001 vs negative control) was 67.3 ± 3.5% and the alternation rate ([2]; dizocilpine + test compound 0.3 mg/kg, tendency toward recovery) was 57.3 ± 5.7%.
